From US10788497B2, “Method for detecting oxidising species” (ECOLE POLYTECHNIQUE, priority 2015, dated 2020)

System: EGFR (Epidermal Growth Factor Receptor)
Test: Hydrogen peroxide production in vascular smooth muscle cells after endothelin-1 stimulation, with or without EGFR inhibition, measured with YAG:Ce and reduced GdVO4:Eu nanoparticles
Type: cell-based
Conditions: mouse vascular smooth muscle cells; 270 nM endothelin-1; AG1478 applied 30 min before stimulation and added to the observation medium
Procedure: Firstly, mammalian cells were prepared. For this purpose, mouse vascular smooth muscle cells (primary culture) were cultured in RPMI (“Roswell Park Memorial Institute” medium) containing 10% of fetal calf serum and antibiotics, in the present case penicillin and streptomycin. When confluence reaches 80%, the cells are taken and deposited on glass slides. In this particular case, 1.5×10^4 cells are typically arranged on a glass slide. The cells are then cultured on the slides for forty-eight hours in the complete culture medium, and then in a medium without serum for twenty-four hours.
In addition, a stable colloidal solution of […] with a concentration roughly equal to 1 mM is prepared. […]
Then a slide with cells loaded with nanoparticles is placed on a sample holder and 1 mL of buffered physiological medium (HBSS/1 mM HEPES) is added. […] After fifty seconds of observation, the initial medium is replaced with physiological medium containing 270 nM of endothelin-1 (ET-1) and the luminescence of individual nanoparticles is observed for several minutes on a full-field sensor (EM-CCD ImageEM camera, Hamamatsu). […]
Next, the variations in intensity of the particles observed (doped with Ce or Eu) over time are determined using image analysis or calculation software (for example Matlab). Each curve obtained is normalized, taking the first values measured for reference. […]

## COc1cc2ncnc(Nc3cccc(Cl)c3)c2cc1OC [AG1478]
  contribution of the EGFR pathway to hydrogen peroxide production (inhibited cells produce half as much hydrogen peroxide as the normal cells): 50%
